Measured values reported in publication PMC8304084, “A Concerted Action of UBA5 C-Terminal Unstructured Regions Is Important for Transfer of Activated UFM1 to UFC1” (International Journal of Molecular Sciences, 2021).

Tested on: AD^1–330
Assay: NMR titration of R1-R2-R3^325–404 with UBA5 AD^1–330
Format: binding
Settings: 2-fold molar excess of AD^1–330, 900 MHz
Procedure: All NMR experiments were performed at a sample temperature of 25 °C on Bruker 600, 700, 800, 900, and 950 MHz spectrometers equipped with cryogenic probes, and a 500 MHz spectrometer equipped with a room-temperature triple-resonance probe. All NMR spectra were analyzed with the Sparky 3.114 software (University of California, San Francisco, USA). For NMR titration experiments, the non-labeled UBA5 peptides were titrated to 100 µM ^13C,^15N-labeled UFC1 to a final molar ratio of 1:8 (UFC1:UBA5 peptide). Conversely, 100 µM ^13C,^15N-labeled UBA5 peptides were titrated with non-labeled UFC1 to a final molar ratio 1:4 (UBA5 peptide:UFC1). 2D ^1H-^15N correlation spectra ([^15N,^1H] TROSY-HSQC) were recorded at each titration point. The same types of spectra were recorded to estimate binding of ^13C,^15N-labeled UFC1 (75 µM) to non-labeled UBA5, UBA5~UFM1 and UFM1 at 1:2 molar ratios. CSP values, Δδ, were calculated for each individual amide group using the formula Δδ = [(ΔδN/5)^2 + Δδ^2HN)]^1/2. […]
experiment, non‐labelled AD1–330 construct was added to the 15N‐labelled R1‐R2‐R3325–404 peptide to a 2‐fold molar excess.
Representative area of [15N,1H] TROSY‐HSQC spectra recorded at 900 MHz for R1‐R2‐R3325–404 in free form (red contours) and in presence of AD1–330 (blue contours) are overlaid. […]

Substance: R1-R2-R3^325–404: UBA5 C-terminal part, residues 325–404 (recombinant, E. coli)
- interaction with UBA5 AD: No interactions
